Data reported in patent US9096536B2, “Asymmetrically substituted anthrapyridazone derivatives as cytostatics” (BS-154 S.P. ZO.O., priority 2011, dated 2015).
≈ marks a conversion by molar mass, not a printed value. Like-named read-outs stand apart in the source and are kept apart here.

Experiments:
uterus cancer MES-SA = assay: Cytostatic activity, panel: uterus cancer MES-SA; type: cell-based; conditions: 72 h continuous exposure
Text: (§1) Tables 8A and 8B present cytostatic activity in vitro of selected anthrapyridazone derivatives according to the invention against panel of sensitive and resistant cell lines, in comparison with doxorubicin, cisplatine and mitoxantrone.

HL60/MX2 = assay: Cytostatic activity, panel: HL60/MX2 resistant to mitoxantrone; type: cell-based; conditions: for RI HL60 HL60/MX2: IC50(resistant cells)/IC50(sensitive cells)
Text: as §1

CT-DNA = assay: Interaction with isolated CT-DNA, fluorescence competition with ethidium bromide; type: binding; conditions: for IC50: 50% decrease in fluorescence intensity of DNA-bromide ethydine complex; for Kapp relative constant of DNA-compound bonding: Kapp = (1.26/C50) × KEtBr, KEtBr = 10^7M
Text: It could be supposed that this property explains cytostatic activity of compounds. In Table 9 there are presented quantitative data on the affinity to DNA of tested compounds using the fluorescence method and competitive affinity to DNA of bromine ethydine and tested compounds.

[1] = system: lymphoblastic leukemia CCRF-CEM; assay: Cytostatic activity, panel: lymphoblastic leukemia CCRF-CEM; type: cell-based; conditions: 72 h continuous exposure
Text: as §1

MCF7/DX = assay: Cytostatic activity in vitro, resistant breast cancer subline MCF7/DX (MDR-1); type: cell-based, human; conditions: for IC50: 72 h continuous exposure; for RI resistance index MCF7/DX: IC50(resistant cells)/IC50(sensitive cells), MCF7/DX vs MCF7
Text: (§2) It should be mentioned that resistance index is above one order of magnitude better in comparison with doxorubicin and mitoxantrone.

CEM/C2 = assay: Cytostatic activity, panel: CEM/C2 resistant to camptotecine; type: cell-based; conditions: for RI CCRF-CEM CEM/C2: IC50(resistant cells)/IC50(sensitive cells)
Text: as §1

HL60/VINC [2] = assay: Substrate properties: activity against HL60/VINC in the presence of cyclosporine A (MDR-1 pump inhibitor); type: cell-based, human; conditions: FIG. 2
Text: FIG. 2 shoes experimentally determined substrate properties of selected antgraoyridazone derivatives vs. Doxorubicin and Mitroxantrone. Activity in vitro against human promyelacytic leykemia cell line HL60/VINC in the presence of cyclosporine A (MDR-1 pump inhibitor).

LoVo/DX = assay: Cytostatic activity, panel: LoVo/DX resistant to doxorubicin; type: cell-based; conditions: for RI LoVo LoVo/DX: IC50(resistant cells)/IC50(sensitive cells)
Text: as §1

[3] = system: human colon adenocarcinoma HT29; assay: Cytostatic activity in vitro, colon adenocarcinoma HT29; type: cell-based; conditions: 72 h continuous exposure
Text: (§3) Table 7 presents activity in vitro of selected anthrapyridazone derivatives according to the invention towards sensitive and resistant (MDR-1 type) cell line of human colon adenocarcinoma with resistance induced by mitoxantrone.

[4] = system: human prostate cancer cell line LNCaP; assay: Cytostatic activity in vitro, prostate cancer LNCaP; type: cell-based; conditions: 72 h continuous exposure
Text: (§4) Table 5 presents activity in vitro of anthrapiridazone derivatives towards three cell lines of prostate cancer, naturally multidrug resistant, in comparison with references doxorubicin, mitoxantrone and taxol.

[5] = system: human prostate cancer cell line PC3; assay: Cytostatic activity in vitro, prostate cancer PC3; type: cell-based; conditions: 72 h continuous exposure
Text: as §4

HL60/DX [6] = assay: Cytostatic activity in vitro, doxorubicin-induced resistant subline (MRP); type: cell-based, human; conditions: for IC50: 72 h continuous exposure; for RI resistance index HL60/DX: IC50(resistant cells)/IC50(sensitive cells), HL60/DX vs HL60, 72 h
Text: (§5) Tables 3 and 4 show cytostatic activity in vitro of 2,6-disubstituted and 2- or 6-monosubstituted (Tab.3), and of 2,5-disubstituted-(Tab.-4) tetracyclic anthrapyridazone derivatives using leukemia cell line HL-60 and the resistant cell sublines with resistance induced by vincristine (MDR-1) or doxorubicin (MRP). Activity of compounds is differentiated depending on their structure, but in all cases resistance indexes are more advantageous in comparison with reference compounds: doxorubicin and mitoxantrone.

[7] = system: human prostate cancer cell line DU145; assay: Cytostatic activity in vitro, prostate cancer DU145; type: cell-based; conditions: 72 h continuous exposure
Text: as §4

HT29/MIT = assay: Cytostatic activity in vitro, mitoxantrone-induced resistant subline HT29/MIT; type: cell-based, human; conditions: for IC50: 72 h continuous exposure; for RI resistance index HT29/MIT: IC50(resistant cells)/IC50(sensitive cells), HT29/MIT vs HT29
Text: as §3

HL60/DX [8] = assay: Substrate properties: activity against HL60/DX in the presence of BSO (MRP pump inhibitor); type: cell-based, human; conditions: FIG. 3
Text: Activity in vitro against human promyelolytic leukemia HL60/DX in the presence of D-L-buthionine-(S,R)-sulphoximine (BSO), MRP pump inhibitor.

[9] = system: promyelolytic leukemia HL-60; assay: Cytostatic activity, panel: promyelolytic leukemia HL-60; type: cell-based; conditions: 72 h continuous exposure
Text: as §1

MES-SA/DX5 = assay: Cytostatic activity, panel: MES-SA/DX5 resistant to doxorubicin; type: cell-based; conditions: for RI MES-SA MES-SA/DX5: IC50(resistant cells)/IC50(sensitive cells)
Text: as §1

colon cancer LoVo = assay: Cytostatic activity, panel: colon cancer LoVo; type: cell-based; conditions: 72 h continuous exposure
Text: as §1

[10] = system: human breast cancer cell line MCF7; assay: Cytostatic activity in vitro, breast cancer MCF7; type: cell-based; conditions: 72 h continuous exposure
Text: as §2

HL60/VINC [11] = assay: Cytostatic activity in vitro, vincristine-induced resistant subline (MDR-1); type: cell-based, human; conditions: for IC50: 72 h continuous exposure; for RI resistance index HL60/VINC: IC50(resistant cells)/IC50(sensitive cells), HL60/VINC vs HL60, 72 h
Text: as §5

[12] = system: human promyelocytic leukemia cell line HL-60; assay: Cytostatic activity in vitro, HL-60 sensitive line; type: cell-based; conditions: 50% inhibition of cell growth after 72 h continuous exposure, read-out: HL60 IC50
Text: as §5

O=C1c2c(O)ccc(O)c2C(=O)c2c(NCCNCCO)ccc(NCCNCCO)c21 [Mitoxantrone, 1,4-dihydroxy-5,8-bis[2-(2-hydroxyethylamino)ethylamino]-9,10-anthracenodione, reference compound]
IC50 (uterus cancer MES-SA; Homo sapiens, MES-SA): 0.23 ± 0.121 µg/mL (≈ 0.517 µM) | IC50 (HL60/MX2; Homo sapiens, HL60/MX2, 72 h continuous exposure): 0.356 µg/mL (≈ 0.801 µM) | RI HL60 HL60/MX2 (HL60/MX2): 42.9 | IC50 (CT-DNA): 48 ± 4 nM | Kapp relative constant of DNA-compound bonding (CT-DNA): 2.61e+08 M⁻¹ | IC50 ([1]; Homo sapiens, CCRF-CEM): 0.0025 µg/mL (≈ 0.00562 µM) | IC50 (MCF7/DX; Homo sapiens, MCF7/DX): 471 ± 160 nM | RI resistance index MCF7/DX (MCF7/DX): 63.6 | IC50 (CEM/C2; Homo sapiens, CEM/C2, 72 h continuous exposure): 0.0028 µg/mL (≈ 0.0063 µM) | RI CCRF-CEM CEM/C2 (CEM/C2): 1.1 | Effect of blocking MDR-1 pump with cyclosporine A (CSA) on cytostatic activity (HL60/VINC [2]): has positive influence on maintaining the cytostatic activity | RI LoVo LoVo/DX (LoVo/DX): 9.5 | IC50 (LoVo/DX; LoVo/DX, 72 h continuous exposure): 2.09 ± 0.519 µg/mL (≈ 4.7 µM) | IC50 ([3]; Homo sapiens, HT-29): 11.4 ± 3.9 nM | IC50 ([4]; Homo sapiens, LNCaP): 7.4 ± 1.1 nM | IC50 ([5]; Homo sapiens): 18.6 ± 3.8 nM | IC50 (HL60/DX [6]; Homo sapiens, HL-60): 3430 ± 661 nM | RI resistance index HL60/DX (HL60/DX [6]): 1633.8 | IC50 ([7]; Homo sapiens, DU-145): 8.5 ± 1.5 nM | IC50 (HT29/MIT; Homo sapiens, HT-29): 854 ± 158 nM | RI resistance index HT29/MIT (HT29/MIT): 74.9 | Effect of MRP protein inhibitor (BSO) on cytostatic activity (HL60/DX [8]): essentially influences the cytostatic activity | IC50 ([9]; Homo sapiens, HL-60, read-out: IC50 HL60): 0.0083 µg/mL (≈ 0.0187 µM) | IC50 (MES-SA/DX5; Homo sapiens, MES-SA/Dx5, 72 h continuous exposure): 0.66 ± 0.059 µg/mL (≈ 1.48 µM) | RI MES-SA MES-SA/DX5 (MES-SA/DX5): 2.9 | IC50 (colon cancer LoVo; Homo sapiens, LoVo): 0.22 ± 0.067 µg/mL (≈ 0.495 µM) | IC50 ([10]; Homo sapiens, MCF7): 7.4 ± 1.9 nM | IC50 (HL60/VINC [11]; Homo sapiens, HL60/vinc): 65.7 ± 6.7 nM | RI resistance index HL60/VINC (HL60/VINC [11]): 31.3 | IC50 ([12]; Homo sapiens, HL-60): 2.1 ± 0.2 nM

CNCCNc1ccc2c(=O)n(CCN(C)C)nc3c2c1C(=O)c1ccccc1-3 [BS-154, 2-[2-(Dimethyloamino)ethyl]-6-{[2-(methylamino)ethyl]amino}-2,7-dihydro-3H -dibenzo[de,h]cynnoline-3,7-dione]
IC50 MES-SA (uterus cancer MES-SA): 0.01333 ± 0.00238 µg/mL (≈ 0.0341 µM) | IC50 HL60/MX2 (HL60/MX2; 72 h continuous exposure): 0.00545 ± 0.00304 µg/mL (≈ 0.0139 µM) | RI HL60 HL60/MX2 (HL60/MX2): 4.9 | IC50 (CT-DNA): 290 ± 10 nM | Kapp relative constant of DNA-compound bonding (CT-DNA): 4.28e+07 M⁻¹ | IC50 CCRF-CEM [1]: 0.00373 ± 0.00193 µg/mL (≈ 0.00953 µM) | IC50 (MCF7/DX): 8.7 ± 1.2 nM | RI resistance index MCF7/DX (MCF7/DX): 1.0 | IC50 CEM/C2 (CEM/C2; 72 h continuous exposure): 0.00124 ± 0.00137 µg/mL (≈ 0.00317 µM) | RI CCRF-CEM CEM/C2 (CEM/C2): 0.3 | Effect of blocking MDR-1 pump with cyclosporine A (CSA) on cytostatic activity (HL60/VINC [2]): does not essentially affect the cytostatic activity | IC50 LoVo/DX (LoVo/DX; 72 h continuous exposure): 0.06842 ± 0.01273 µg/mL (≈ 0.175 µM) | RI LoVo LoVo/DX (LoVo/DX): 44.7 | IC50 [3]: 5.2 ± 1.3 nM | IC50 [4]: 2.6 ± 0.3 nM | IC50 [5]: 14 ± 3.3 nM | IC50 (HL60/DX [6]): 375 ± 41 nM | RI resistance index HL60/DX (HL60/DX [6]): 416.7 | IC50 [7]: 3 ± 0.7 nM | IC50 (HT29/MIT): 11.2 ± 2.2 nM | RI resistance index HT29/MIT (HT29/MIT): 2.1 | Effect of MRP protein inhibitor (BSO) on cytostatic activity (HL60/DX [8]): only partially | IC50 HL60 [9]: 0.00111 ± 0.00002 µg/mL (≈ 0.00284 µM) | IC50 MES-SA/DX5 (MES-SA/DX5; 72 h continuous exposure): 0.03833 ± 0.01136 µg/mL (≈ 0.0979 µM) | RI MES-SA MES-SA/DX5 (MES-SA/DX5): 2.9 | IC50 LoVo (colon cancer LoVo): 0.00153 ± 0.00102 µg/mL (≈ 0.00391 µM) | IC50 [10]: 8.8 ± 0.6 nM | IC50 (HL60/VINC [11]): 8.1 ± 1 nM | RI resistance index HL60/VINC (HL60/VINC [11]): 9.0 | IC50 [12]: 0.9 ± 0.1 nM
